According to patent US10918613B2, “Antioxidant compositions for treatment of inflammation or oxidative damage” (Perio Sciences, LLC, priority 2011, dated 2021):
Where two headings read alike, the source gives them in different places.

Experiments:
[1] = system: Oral fibroblasts obtained from human gingival (HGF) tissues; experiment: MTS cell viability assay of HGF cells pre-treated with Zn, Cu and Ni, then AO mixtures
Experimental: (§1) In dentistry, the use of metals in fillings, braces, bridges and other prosthodontic restorations may form free radicals. […] A study was conducted to determine if oral fibroblasts are susceptible to damage from these agents which elevate reaction oxygen species (ROS). In this study, specific antioxidant (AO) combinations were investigated that counteract the effects of Zn, Cu and Ni on cultured oral fibroblast proliferation and oxidative damage. Oral fibroblasts obtained from human gingival (HGF) tissues were seeded into 96-well plates. After achieving 70% confluence, the cells were pre-treated with Zn, Cu and Ni for 30 and 60 minutes. Thereafter, cells were exposed to 10^-5M of the bioactive AO mixtures; resveratrol (R), ferulic acid (F) phloretin (P) and tetrahydrocurcuminoids (T); (RFT, PFR, PFT) for 24 hours. Cell viability was monitored by MTS assay. The fluorescence response of dichlorodihydrofluorescein diacetate to various ROS was measured.
(§2) A study was conducted to determine if oral fibroblasts are susceptible to damage from these agents by decreasing cell viability and whether specific antioxidants (AO) in combinations can counteract these effects. Oral fibroblasts obtained from human gingival (HGF) tissues were seeded into 96-well plates. After achieving 70% confluence, the cells were pre-treated with Zn, Cu and Ni for 30 and 60 minutes. Thereafter, cells were exposed to 10^-5M of the bioactive AO mixtures at single, double and triple combinations; resveratrol (R), ferulic acid (F), phloretin (P), and tetrahydrocurcuminoids (T) for 24 hours. Cell viability was monitored by MTS assay.

[2] = system: fibroblasts from human gingival (HGF) and human periodontal ligament (HPDF) cells
Experimental: A study was done to determine the antioxidant effect on fibroblasts from human gingival (HGF) and human periodontal ligament (HPDF) cells exposed to increasing concentration of cytotoxic metals. HGF and HPDF cells were extracted and seeded with 10% fetal bovine serum (FBS). Both the HGF and HPDF cells were then exposed to one of 3×10^−4M or 2×10^−4M ZnCl2, 2×10^−3M or 1×10^−3M NiCl2, 5×10^−4M or 4×10^−4M CuCl2. Next, the samples were treated with bioactive antioxidant (AO) mixtures at single, double, and triple combinations; resveratrol (R), ferulic acid (F), phloretin (P), and tetrahydrocurcuminoids (T). Both the HGF and HPDF cells were then monitored by MTS, ROS, and BrdU assays.

[3] = system: Oral fibroblasts obtained from human gingival (HGF) tissues
Experimental: as §1, §2

TNF-α mRNA = experiment: RT-PCR of TNF-α mRNA in LPS-stimulated PBMCs; assay type: cell-based, human; conditions: harvested after 4 hrs, 2-ΔΔCt, GAPDH control
Experimental: (§3) RT-PCR Assays—Total RNA was extracted from homogenized cells using the miRNeasy kit (Qiagen, Valencia, Calif., USA) according to the manufacturer's protocol. Total RNA quantified on Nanodrop (ThermoScientific, Rockford, Ill., USA) was used for first strand cDNA synthesis using the SS RTIII kit (Life Technologies, Carlsbad, Calif., USA). Real-time PCR was performed using EvaGreen 2× master mix (Biotium, Hayward, Calif., USA), 10 pmol forward and reverse gene specific primers and 1 ul of 1:10 diluted cDNA. GAPDH was used as endogenous control. The fold change was calculated using 2-ΔΔCt method and the control was set at 1. Custom primers were purchased from Sigma-Aldrich (St Louis, Mo., USA). Primer sequences for TNF-α were: Forward, […], Reverse: […]. Primer sequences for IκB-α were: Forward, […], Reverse: […]. Data Analysis—Statistics were performed using two-tailed t-test or one-way analysis of variance (ANOVA). Statistical significance is indicated by an asterisk *, where p≤0.05. Error bars on all graphs indicate standard error of mean (SEM) or standard deviation (SD).
(§4) Inhibition of TNF-α is present at the level of mRNA transcription—Whether the reduced production of inflammatory mediators was due to decreased mRNA transcription was investigated. […] After 4 hrs the cells were harvested, total RNA isolated and RT-PCR performed to measure the levels of TNF-α mRNA present. […]

TNF-α = TNF-α production by Aa Y4 LPS-stimulated PBMCs (ELISA); assay type: cell-based, human; conditions: PBMCs pre-treated 2 hrs with 1×10^−4M anti-oxidant, then LPS 18 hrs
From the text: (§5) Cell Culture—PBMCs were isolated from buffy coats derived from healthy donors (Sylvan N. Goldman Oklahoma Blood Institute, Oklahoma City, Okla., USA) by density gradient centrifugation (Ficoll-Paque plus; GE Healthcare, Piscataway, N.J., USA). Oleuropein (purity=80.17%) was purchased from Sabinsa Corporation (Payson, Utah, USA). Silymarin (purity≥95%), ferulic acid (purity≥98%), hesperetin (purity≥95%), resveratrol (purity≥99%), and phloretin (purity≥99%) were purchased from Sigma-Aldrich (St Louis, Mo., USA). Dimethyl sulfoxide (DMSO) (purity=99.90%) was purchased from EMD Millipore (Billerica, Mass., USA). Oleuropein, silymarin, ferulic acid, hesperetin, resveratrol and phloretin were provided as 0.1M stock solutions prepared in DMSO by Periosciences Ltd (Dallas, Tex., USA).
PBMCs were seeded at either 4×10^5 or 1.2×10^6 cells in 96- or 48-well tissue culture plates (BD Biosciences, Franklin Lakes, N.J., USA) respectively. PBMCs were pre-treated with single antioxidants at a concentration of 1×10^−4 M or combinations of antioxidants with a combined concentration of 1×10^−4 M for 2 hrs prior to stimulation. […] S.C.) at a concentration of 1 μg/ml in the presence of antioxidants. Media were collected, spun at 1600 RPM and cell-free supernatants transferred to fresh tubes and stored at −20 C. Cell viability was assayed using CellTiter 96® AQueous One Solution Reagent (Promega, Madison, Wis., USA) following the manufacturers guidelines. 20 μl of the reagent was added to each well and incubated for 2 hrs under culture conditions. After 2 hrs the absorbance at 490 nm was recorded using a 96-well plate reader.
ELISA and Multiplex Assays—Human tumour necrosis factor-alpha (TNF-α) capture and detection Abs were purchased from Life Technologies (Carlsbad, Calif., USA) and used for the development of a TNF-α sandwich ELISA according to the manufacturer's instructions. Cell culture supernatants were analyzed using a 96-well plate reader with absorbance at 450 nm (reference 650 nm).
Stimulation of PBMCs with Aa Y4 LPS—To establish the optimal concentrations of anti-oxidants and LPS for this study, dose and kinetic experiments were performed. The doses examined were: 1×10^−4, 1×10^−5 and 1×10^−6M while the challenge concentrations of Aa Y4 LPS were 1, 10, 100 or 1000 ng/ml. Whole blood was stimulated with several concentrations of E. coli or Aa Y4 LPS and TNF-α production quantified by ELISA over 3 time-points: 16, 24 and 48 hrs.

CCL5 = CCL5 production by LPS-stimulated PBMCs (multiplex); assay type: cell-based, human; conditions: 1×10^−4M anti-oxidant 2 hrs, then LPS 18 hrs
From the text: as §5, with “Oleuropein, silymarin, ferulic acid, hesperetin, resveratrol and phloretin were provided as 0.1M stock solutions prepared in DMSO by Periosciences Ltd (Dallas, Tex., USA).” left out
(§6) PBMCs were seeded at either 4×10^5 or 1.2×10^6 cells in 96- or 48-well tissue culture plates (BD Biosciences, Franklin Lakes, N.J., USA) respectively. […] After 2 hrs the absorbance at 490 nm was recorded using a 96-well plate reader.
(§7) Human Cytokine Fluorokine MAP kit was purchased from R & D Systems (Minneapolis, Minn., USA). Readouts included TNF-α, IL-1α, IL-1β, IL-1Ra, IL-2, IL-4, IL-5, IL-6, IL-8, IL-10, IL-17, macrophage inflammatory protein (MIP)-1α (MIP-1α), MIP-1β, interferon-γ (IFN-γ), granulocyte-colony stimulating factor (G-CSF), granulocyte macrophage-colony stimulating factor (GM-CSF), macrophage chemotactic protein (MCP-1), CCL5, CXCL5, vascular endothelial growth factor (VEGF), thrombopoietin (TPO) and fibroblast growth factor basic (FGFb). […]

G-CSF = G-CSF production by LPS-stimulated PBMCs (multiplex); assay type: cell-based, human; conditions: 1×10^−4M anti-oxidant 2 hrs, then LPS 18 hrs
From the text: Cell Culture—PBMCs were isolated from buffy coats derived from healthy donors (Sylvan N. Goldman Oklahoma Blood Institute, Oklahoma City, Okla., USA) by density gradient centrifugation (Ficoll-Paque plus; GE Healthcare, Piscataway, N.J., USA). Oleuropein (purity=80.17%) was purchased from Sabinsa Corporation (Payson, Utah, USA). […] Dimethyl sulfoxide (DMSO) (purity=99.90%) was purchased from EMD Millipore (Billerica, Mass., USA). Oleuropein, silymarin, ferulic acid, hesperetin, resveratrol and phloretin were provided as 0.1M stock solutions prepared in DMSO by Periosciences Ltd (Dallas, Tex., USA).
PBMCs were seeded at either 4×10^5 or 1.2×10^6 cells in 96- or 48-well tissue culture plates (BD Biosciences, Franklin Lakes, N.J., USA) respectively. PBMCs were pre-treated with single antioxidants at a concentration of 1×10^−4 M or combinations of antioxidants with a combined concentration of 1×10^−4 M for 2 hrs prior to stimulation. PBMCs were then stimulated for 16 hrs with purified LPS isolated from the bacterium Actinobacillus actinomycetemcomitans, strain Y4 (Aa Y4); a kind gift of Dr Kirkwood, Univ. S.C.) at a concentration of 1 μg/ml in the presence of antioxidants. Media were collected, spun at 1600 RPM and cell-free supernatants transferred to fresh tubes and stored at −20 C. Cell viability was assayed using CellTiter 96® AQueous One Solution Reagent (Promega, Madison, Wis., USA) following the manufacturers guidelines. […] After 2 hrs the absorbance at 490 nm was recorded using a 96-well plate reader.

IL-1β = IL-1β production by LPS-stimulated PBMCs (multiplex, FIG. 9D); assay type: cell-based, human; conditions: 1×10^−4M anti-oxidant 2 hrs, then LPS 18 hrs
From the text: as §5, with “Oleuropein, silymarin, ferulic acid, hesperetin, resveratrol and phloretin were provided as 0.1M stock solutions prepared in DMSO by Periosciences Ltd (Dallas, Tex., USA).” left out
as §6, §7

IL-1α = IL-1α production by LPS-stimulated PBMCs (multiplex); assay type: cell-based, human; conditions: 1×10^−4M anti-oxidant 2 hrs, then LPS 18 hrs
From the text: as §5
(§8) PBMCs were seeded at either 4×10^5 or 1.2×10^6 cells in 96- or 48-well tissue culture plates (BD Biosciences, Franklin Lakes, N.J., USA) respectively. PBMCs were pre-treated with single antioxidants at a concentration of 1×10^−4 M or combinations of antioxidants with a combined concentration of 1×10^−4 M for 2 hrs prior to stimulation. PBMCs were then stimulated for 16 hrs with purified LPS isolated from the bacterium Actinobacillus actinomycetemcomitans, strain Y4 (Aa Y4); a kind gift of Dr Kirkwood, Univ. S.C.) at a concentration of 1 μg/ml in the presence of antioxidants. Media were collected, spun at 1600 RPM and cell-free supernatants transferred to fresh tubes and stored at −20 C. […] After 2 hrs the absorbance at 490 nm was recorded using a 96-well plate reader.
as §7

IL-6 = IL-6 production by LPS-stimulated PBMCs (multiplex); assay type: cell-based, human; conditions: 1×10^−4M anti-oxidant 2 hrs, then LPS 18 hrs
From the text: as §5, §8, §7

IFN-γ = IFN-γ production by LPS-stimulated PBMCs (multiplex); assay type: cell-based, human; conditions: 1×10^−4M anti-oxidant 2 hrs, then LPS 18 hrs
From the text: as §5, §8, §7

IL-10 = IL-10 production by LPS-stimulated PBMCs (multiplex); assay type: cell-based, human; conditions: 1×10^−4M anti-oxidant 2 hrs, then LPS 18 hrs
From the text: as §5, with “Oleuropein, silymarin, ferulic acid, hesperetin, resveratrol and phloretin were provided as 0.1M stock solutions prepared in DMSO by Periosciences Ltd (Dallas, Tex., USA).” left out
as §6, §7

IL-1Ra = IL-1Ra production by LPS-stimulated PBMCs (multiplex); assay type: cell-based, human; conditions: 1×10^−4M anti-oxidant 2 hrs, then LPS 18 hrs
From the text: as §5, with “Oleuropein, silymarin, ferulic acid, hesperetin, resveratrol and phloretin were provided as 0.1M stock solutions prepared in DMSO by Periosciences Ltd (Dallas, Tex., USA).” left out
as §6, §7

IκB-α mRNA = experiment: RT-PCR of IκB-α mRNA in LPS-stimulated PBMCs (NF-κB activation); assay type: cell-based, human
Experimental: as §3, §4

[4] = HGF and HPDF, Example 4 metal concentrations

[Cl][Cu][Cl] [Cu, CuCl2]
viable cells after incubation with metal (MTS) [1]: dose-dependent decrease of viable cells
effect of metal on ROS [2]: increased ROS
effect of metal on ROS [3]: increased ROS

[Cl][Ni][Cl] [Ni, NiCl2]
viable cells after incubation with metal (MTS) ([1]; HGF cells, 30 and 60 minutes): dose-dependent decrease of viable cells
effect of metal on ROS [2, 4]: little effect on ROS
effect of metal on ROS ([3]; HGF cells): increased ROS

[Cl-].[Cl-].[Zn+2] [Zn, ZnCl2]
viable cells after incubation with metal (MTS) ([1]; HGF cells, 30 and 60 minutes): dose-dependent decrease of viable cells
effect of metal on ROS [2, 4]: little effect on ROS
effect of metal on ROS ([3]; HGF cells): increased ROS

COc1cc(/C=C/C(=O)O)ccc1O [ferulic acid]
reduction of TNF-α mRNA expression levels (TNF-α mRNA): not
TNF-α production (TNF-α): no observed effect
production of CCL5 (CCL5): Apart from ferulic acid

COc1ccc([C@@H]2CC(=O)c3c(O)cc(O)cc3O2)cc1O [hesperetin]
G-CSF production (G-CSF): inhibited
TNF-α production (TNF-α): Significant inhibition
levels of IL-1β (IL-1β): decreased levels
production of IL-1α (IL-1α): inhibited the production
production of IL-6 (IL-6): inhibited the production
IFN-γ induced by LPS stimulation (IFN-γ): abolished

O=C(CCc1ccc(O)cc1)c1c(O)cc(O)cc1O [phloretin]
G-CSF production (G-CSF): inhibited
production of IL-10 (IL-10): inhibited the production
TNF-α production (TNF-α): Significant inhibition
production of IL-1Ra (IL-1Ra): inhibited the production
production of IL-1α (IL-1α): inhibited the production
production of IL-6 (IL-6): inhibited the production
IFN-γ induced by LPS stimulation (IFN-γ): abolished

Oc1ccc(C=Cc2cc(O)cc(O)c2)cc1 [resveratrol]
reduction of IκB-α mRNA expression (IκB-α mRNA): ~50%
G-CSF production (G-CSF): inhibited
production of IL-10 (IL-10): inhibited the production
TNF-α production (TNF-α): Significant inhibition
levels of IL-1β (IL-1β): decreased levels
production of IL-1Ra (IL-1Ra): inhibited the production
production of IL-1α (IL-1α): inhibited the production
production of IL-6 (IL-6): inhibited the production
IFN-γ induced by LPS stimulation (IFN-γ): abolished
